In US11814391B2, “Macrocyclic compounds for the treatment of medical disorders” (Achillion Pharmaceuticals, Inc., priority 2018, dated 2023):
Like-named read-outs stand apart in the source and are kept apart here.

Details: rcm bond, 17-membered ring, Grubbs II

Q: For `C=Cc1cc(-c2cnc(C)nc2)cc2c(C(C)=O)nn(CC(=O)N3[C@H](C(=O)Nc4nc(C(F)(F)F)ccc4C)C[C@@]4(CNC(=O)C[C@@H](C)CCC=C(C)C)C[C@@H]34)c12`, which ring closure, isolated yield (the molecule shown is the open-chain precursor, DCE, 1.25 mM, 50.0 °C) is on record?
A: 55.6%

Q: For `CC(=O)c1nn2c3c(cc(-c4cnc(C)cn4)cc13)CC=CCC[C@@H](C)C(=O)NC[C@@]13C[C@@H](C(=O)Nc4nc(C(F)(F)F)ccc4C)N(C(=O)C2)[C@@H]1C3`, which ring closure, isolated yield (from C=CCC[C@@H](C)C(=O)NC[C@@]12C[C@@H](C(=O)Nc3nc(C(F)(F)F)ccc3C)N(C(=O)Cn3nc(C(C)=O)c4cc(-c5cnc(C)cn5)cc(CC=C)c43)[C@@H]1C2, toluene, 1.32 mM, 80.0 °C) is on record?
A: 62.1%

Q: Which ring closure, isolated yield (from C=CCc1cc(-c2cnc(C)nc2)cc2c(C(C)=O)nn(CC(=O)N3[C@H](C(=O)Nc4nc(C(F)(F)F)ccc4C)C[C@@]4(CNC(=O)CC(C)(C)CC=C)C[C@@H]34)c12, toluene, 1.2 mM, 80.0 °C) does the source give for `CC(=O)c1nn2c3c(cc(-c4cnc(C)nc4)cc13)CC=CCC(C)(C)CC(=O)NC[C@@]13C[C@@H](C(=O)Nc4nc(C(F)(F)F)ccc4C)N(C(=O)C2)[C@@H]1C3` here?
A: 67.4%

Q: Which ring closure, isolated yield (from C=CCC[C@@H](C)C(=O)NC[C@@]12C[C@@H](C(=O)Nc3nc(C(F)(F)F)ccc3C)N(C(=O)Cn3nc(C(C)=O)c4cc(-c5cnc6cc(C)nn6c5)cc(CC=C)c43)[C@@H]1C2, toluene, 1.64 mM, 80.0 °C) does the source give for `CC(=O)c1nn2c3c(cc(-c4cnc5cc(C)nn5c4)cc13)CC=CCC[C@@H](C)C(=O)NC[C@@]13C[C@@H](C(=O)Nc4nc(C(F)(F)F)ccc4C)N(C(=O)C2)[C@@H]1C3` here?
A: 66.7%

Q: With “(1,R,3S,5R)-2-{2-[3-Acetyl-5-methoxy-7-(prop-2-en-1-yl)indazol-1-yl]acetyl}-5-(hex-5-enamidonaethyl)-N-[3-methyl-6-(trifluoromethyl)pyridin-2-yl]-2-azabicyclo[3.1.0]hexane-3-carboxamide” as the compound, how does the ring closure, isolated yield (the molecule shown is the open-chain precursor, toluene, 1.43 mM, 80.0 °C) read?
A: 69.1%

Q: Which ring closure, isolated yield (the molecule shown is the open-chain precursor, toluene, 1.72 mM, 80.0 °C) does the source give for “(1R,3S,5R)-2-(2-(3-Acetyl-7-allyl-5-(2-methylpyrimidin-5-yl)-1H-indazol-1-yl)acetyl)-N-(3-methyl-6-(trifluoromethyl)pyridin-2-yl)-5-(((R)-2-methylhex-5-amido)methyl)-2-azabicyclo[3.1.0]hexane-3-carboxamide” here?
A: 47.9%
